7 molecules from PubChem BioAssay AID1259407 (Chemical Carcinogenesis Research Information System (CCRIS), 2018) can be followed below.

This data set has as its system CCRIS mutagenicity, Ames/micronucleus/aberration tests. Briefly: CCRIS mutagenicity studies.
The mark [1] stands for this setting: Test System: AMES SALMONELLA TYPHIMURIUM, Strain/Indicator: TA97, Metabolic Activation: NONE, Method: STANDARD PLATE.
Setting [2] is: Test System: AMES SALMONELLA TYPHIMURIUM, Strain/Indicator: TA97, Metabolic Activation: RAT, LIVER, S-9, AROCLOR 1254, Method: STANDARD PLATE.
[3] abbreviates: Test System: AMES SALMONELLA TYPHIMURIUM, Strain/Indicator: TA98, Metabolic Activation: HAMSTER, LIVER, S-9, AROCLOR 1254 (30%), Method: PREINCUBATION
Setting [4] is: Test System: AMES SALMONELLA TYPHIMURIUM, Strain/Indicator: TA98, Metabolic Activation: NONE, Method: STANDARD PLATE.
The mark [5] stands for this setting: Test System: AMES SALMONELLA TYPHIMURIUM, Strain/Indicator: TA98, Metabolic Activation: RAT, LIVER, S-9, AROCLOR 1254 (30%), Method: PREINCUBATION
[6] abbreviates: Test System: AMES SALMONELLA TYPHIMURIUM, Strain/Indicator: TA98, Metabolic Activation: RAT, LIVER, S-9, AROCLOR 1254, Method: STANDARD PLATE.
Where [7] appears, read: Test System: AMES SALMONELLA TYPHIMURIUM, Strain/Indicator: TA100, Metabolic Activation: HAMSTER, LIVER, S-9, AROCLOR 1254 (30%), Method: PREINCUBATION
[8] abbreviates: Test System: AMES SALMONELLA TYPHIMURIUM, Strain/Indicator: TA100, Metabolic Activation: NONE, Method: PREINCUBATION
The mark [9] stands for this setting: Test System: AMES SALMONELLA TYPHIMURIUM, Strain/Indicator: TA100, Metabolic Activation: NONE, Method: STANDARD PLATE.
Where [10] appears, read: Test System: AMES SALMONELLA TYPHIMURIUM, Strain/Indicator: TA100, Metabolic Activation: RAT, LIVER, S-9, AROCLOR 1254 (30%), Method: PREINCUBATION
The mark [11] stands for this setting: Test System: AMES SALMONELLA TYPHIMURIUM, Strain/Indicator: TA100, Metabolic Activation: RAT, LIVER, S-9, AROCLOR 1254, Method: STANDARD PLATE.

Activity calls are given as the source filed them. How the calls were made is not given here.

With `CCCCCCCCCCOC[N+](C)(C)Cc1ccccc1`, the mutagenic call (Test System: BACILLUS SUBTILIS, Strain/Indicator: H17/REC, Metabolic Activation: NONE, Method: STANDARD PLATE) is “inactive; negative” and the mutagenic call (Test System: BACILLUS SUBTILIS, Strain/Indicator: M45, Metabolic Activation: NONE, Method: STANDARD PLATE) is “inactive; negative”.
Consider `c1ccc(C2CO2)cc1` (configuration not stated), for which the mutagenic call runs as follows: (End Point: IN VITRO CHROMOSOMAL ABERRATIONS, Test System: CHL CELLS, Metabolic Activation: RAT, LIVER, S-9, SODIUM PHENOBARBITAL AND 5,6-BENZOFLAVONE) “active; positive (structural changes)”; under setting [1], “active; positive”; under setting [2], “inactive; negative”; under setting [3], “inactive; negative”; under setting [4], “inactive; negative”; (Test System: AMES SALMONELLA TYPHIMURIUM, Strain/Indicator: TA98, Metabolic Activation: RAT LIVER S-9, PHENOBARBITAL AND BETA-NAPHTHOFLAVONE, Method: PREINCUBATION) “inactive; negative”. In addition, the mutagenic call was “inactive; negative” under setting [5]; “inactive; negative” under setting [6]; “active; positive” under setting [7]; “active; positive” under setting [8]; “active; positive” under setting [9]; “active; positive” (Test System: AMES SALMONELLA TYPHIMURIUM, Strain/Indicator: TA100, Metabolic Activation: RAT LIVER S-9, PHENOBARBITAL AND BETA-NAPHTHOFLAVONE, Method: PREINCUBATION). For the same molecule, the mutagenic call reads like this: under setting [10], “active; positive”; under setting [11], “inactive; negative”; (Test System: AMES SALMONELLA TYPHIMURIUM, Strain/Indicator: TA104, Metabolic Activation: NONE, Method: STANDARD PLATE) “active; positive”; (Test System: AMES SALMONELLA TYPHIMURIUM, Strain/Indicator: TA1535, Metabolic Activation: NONE, Method: PREINCUBATION) “active; positive”; (Test System: AMES SALMONELLA TYPHIMURIUM, Strain/Indicator: TA1535, Metabolic Activation: NONE, Method: STANDARD PLATE) “active; positive”; (Test System: AMES SALMONELLA TYPHIMURIUM, Strain/Indicator: TA1535, Metabolic Activation: RAT LIVER S-9, PHENOBARBITAL AND BETA-NAPHTHOFLAVONE, Method: PREINCUBATION) “active; positive”. Also, the mutagenic call is “active; positive” (Test System: AMES SALMONELLA TYPHIMURIUM, Strain/Indicator: TA1537, Metabolic Activation: NONE, Method: PREINCUBATION); “inactive; negative” (Test System: AMES SALMONELLA TYPHIMURIUM, Strain/Indicator: TA1537, Metabolic Activation: RAT LIVER S-9, PHENOBARBITAL AND BETA-NAPHTHOFLAVONE, Method: PREINCUBATION); “active; positive” (Test System: AMES SALMONELLA TYPHIMURIUM, Strain/Indicator: TA4001, Metabolic Activation: NONE, Method: STANDARD PLATE); “active; positive” (Test System: AMES SALMONELLA TYPHIMURIUM, Strain/Indicator: TA4006, Metabolic Activation: NONE, Method: STANDARD PLATE); “inactive; negative” (Test System: CHINESE HAMSTER V-79, Strain/Indicator: V-79/6-THIOGUANINE, Metabolic Activation: NONE, Method: FLASK ASSAY); “active; positive” (Test System: CHINESE HAMSTER V-79, Strain/Indicator: V-79/8-AZAGUANINE, Metabolic Activation: NONE, Method: STANDARD PLATE). In addition, the mutagenic call is “active; positive” (Test System: E. COLI, Strain/Indicator: WP2 UVRA, Metabolic Activation: NONE, Method: STANDARD PLATE); “active; positive” (Test System: E.COLI, Strain/Indicator: WP2UVRA, Metabolic Activation: NONE, Method: PREINCUBATION); “active; positive” (Test System: E.COLI, Strain/Indicator: WP2UVRA, Metabolic Activation: RAT LIVER S-9, PHENOBARBITAL AND BETA-NAPHTHOFLAVONE, Method: PREINCUBATION); “active; positive” (Test System: HUMAN T LYMPHOCYTES, PRIMARY CULTURES, Strain/Indicator: HPRT/6-THIOGUANINE, Metabolic Activation: NONE, Method: SUSPENSION/PLATE); “active; positive” (Test System: UDS HUMAN CELLS, Strain/Indicator: THY INCORP (NON-S-PHASE), Metabolic Activation: NONE, Method: LIQUID SCINTILLATION COUNTING).
`NC(=O)NCC(=O)O`: the mutagenic call runs as follows: under setting [1], “inactive; negative”; under setting [2], “inactive; negative”; under setting [4], “inactive; negative”; under setting [6], “inactive; negative”; under setting [9], “inactive; negative”; under setting [11], “inactive; negative”. For the same molecule, the mutagenic call runs as follows: (Test System: AMES SALMONELLA TYPHIMURIUM, Strain/Indicator: TA102, Metabolic Activation: NONE, Method: STANDARD PLATE) “inactive; negative”; (Test System: AMES SALMONELLA TYPHIMURIUM, Strain/Indicator: TA102, Metabolic Activation: RAT, LIVER, S-9, AROCLOR 1254, Method: STANDARD PLATE) “inactive; negative”.
As for `Cc1ccc(-c2nc(-c3ccc(C)cc3C)[nH]c2-c2ccc(C)cc2)cc1`, the mutagenic call is “active; positive” under setting [4]; “active; positive” (Test System: AMES SALMONELLA TYPHIMURIUM, Strain/Indicator: TA98, Metabolic Activation: RAT LIVER S-9, 3-METHYLCHOLANTHRENE, SODIUM PHENOBARBITAL, Method: STANDARD PLATE); “active; positive” under setting [9]; “active; positive” (Test System: AMES SALMONELLA TYPHIMURIUM, Strain/Indicator: TA100, Metabolic Activation: RAT LIVER S-9, 3-METHYLCHOLANTHRENE, SODIUM PHENOBARBITAL, Method: STANDARD PLATE).
Consider `Nc1nc2c([nH]c(=O)n2[C@@H]2O[C@H](CO)[C@@H](O)[C@H]2O)c(=O)[nH]1`, for which the mutagenic call under setting [8] was “inactive; negative”.
Consider `O=c1[nH][nH]c(=O)c2cc([N+](=O)[O-])ccc12`, for which the mutagenic call runs as follows: under setting [3], “active; positive”; (Test System: AMES SALMONELLA TYPHIMURIUM, Strain/Indicator: TA98, Metabolic Activation: NONE, Method: PREINCUBATION) “active; positive”; under setting [5], “active; positive”; under setting [7], “active; positive”; under setting [8], “active; positive”; under setting [10], “inactive; negative”.
On to `O[C@@H]1C=C2c3ccccc3-c3cccc(c32)[C@H]1O`, for which the mutagenic call is, setting by setting: (Test System: AMES SALMONELLA TYPHIMURIUM, Strain/Indicator: TM677, Metabolic Activation: NONE, Method: PREINCUBATION) “active; positive”; (Test System: AMES SALMONELLA TYPHIMURIUM, Strain/Indicator: TM677, Metabolic Activation: RAT, LIVER, POSTMITOCHONDRIAL SUPERNATANT, AROCLOR 1254, Method: PREINCUBATION) “active; positive”.
